By Emax is commonly meant the greatest response seen or fitted, relative to the assay's reference.

In the test the target is T1, GABAA (α3β2γ2) subtype (Homo sapiens, UniProt P18507+P34903).
T1 construct: expressed in transfected cells
T1 sequence (P34903 29-492): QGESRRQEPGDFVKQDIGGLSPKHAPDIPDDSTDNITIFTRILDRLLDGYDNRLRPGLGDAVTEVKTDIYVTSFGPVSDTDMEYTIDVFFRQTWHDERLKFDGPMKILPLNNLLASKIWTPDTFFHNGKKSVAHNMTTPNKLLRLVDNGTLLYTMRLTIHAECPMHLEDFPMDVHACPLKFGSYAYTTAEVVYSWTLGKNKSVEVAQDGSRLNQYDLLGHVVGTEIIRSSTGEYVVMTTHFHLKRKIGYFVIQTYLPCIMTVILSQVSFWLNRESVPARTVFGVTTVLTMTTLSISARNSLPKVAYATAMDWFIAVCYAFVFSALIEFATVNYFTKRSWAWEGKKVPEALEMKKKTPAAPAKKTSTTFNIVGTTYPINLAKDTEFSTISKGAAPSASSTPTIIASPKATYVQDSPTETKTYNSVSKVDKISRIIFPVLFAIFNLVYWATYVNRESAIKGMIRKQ
T1 sequence (P47870 25-512 partner limits assumed): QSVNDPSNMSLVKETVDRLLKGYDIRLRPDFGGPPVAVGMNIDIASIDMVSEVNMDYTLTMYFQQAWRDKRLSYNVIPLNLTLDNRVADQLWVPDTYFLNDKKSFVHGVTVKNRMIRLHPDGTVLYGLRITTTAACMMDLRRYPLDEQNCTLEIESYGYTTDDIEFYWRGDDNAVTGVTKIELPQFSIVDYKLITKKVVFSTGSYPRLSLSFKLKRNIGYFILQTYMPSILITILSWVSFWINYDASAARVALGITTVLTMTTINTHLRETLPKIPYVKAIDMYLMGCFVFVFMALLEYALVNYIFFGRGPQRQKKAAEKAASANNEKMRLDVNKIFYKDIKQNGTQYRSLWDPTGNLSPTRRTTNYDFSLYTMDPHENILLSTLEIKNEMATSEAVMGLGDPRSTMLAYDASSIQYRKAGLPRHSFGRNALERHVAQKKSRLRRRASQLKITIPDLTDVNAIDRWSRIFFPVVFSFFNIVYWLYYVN
T1 sequence (P18507 40-475): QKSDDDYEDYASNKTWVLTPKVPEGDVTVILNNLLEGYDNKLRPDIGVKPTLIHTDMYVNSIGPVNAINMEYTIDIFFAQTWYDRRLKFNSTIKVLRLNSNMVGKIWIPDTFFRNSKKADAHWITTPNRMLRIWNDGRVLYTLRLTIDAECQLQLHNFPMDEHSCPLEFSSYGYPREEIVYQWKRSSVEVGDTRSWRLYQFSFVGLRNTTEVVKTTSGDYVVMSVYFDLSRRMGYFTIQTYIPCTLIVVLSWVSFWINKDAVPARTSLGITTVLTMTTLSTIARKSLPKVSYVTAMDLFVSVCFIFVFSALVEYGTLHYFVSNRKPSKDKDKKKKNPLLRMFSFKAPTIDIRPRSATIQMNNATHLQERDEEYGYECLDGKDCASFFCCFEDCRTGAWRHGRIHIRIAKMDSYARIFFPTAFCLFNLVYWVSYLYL
Briefly: Automated patch-clamp (QPatch) modulation of GABA-activated currents in cells stably transfected with GABAA (α3β2γ2) channels. The format is cell-based. The conditions noted are these: stably transfected Ltk cells, 2.0 μM GABA (submaximal), whole-cell patch, holding potential −80 mV; Emax = upper asymptote of dose-response fit. The method, then: Modulatory effects of the compounds of this disclosure were investigated using cells stably transfected with GABA-activated channels of the GABAA (α3β2γ2) subtype together with submaximal GABA concentrations. Expression of GABA receptor were induced by adding Dexamethasone to the cells for 24 to 48 h before experimentation. In general, cells were passaged at a confluence of about 80 to 90%. For electrophysiological measurements cells were harvested at a confluence of about 80 to 90% from sterile culture flasks containing culture complete medium. Cells were transferred as suspension in PBS to the QPatch 16X or QPatch HTX system to the centrifuge/washer directly. Cells were incubated at 37° C. in a humidified atmosphere with 5% CO2 (rel. humidity about 95%). The cells were continuously maintained in and passaged in sterile culture flasks containing a 1:1 mixture of Dulbecco's modified eagle medium and nutrient mixture D-MEM/F-12 (1×, liquid, with L-Glutamine), supplemented with 10% foetal bovine serum and 1.0% Penicillin/Streptomycin solution and neomycin. The 1× bath solution was made at least every 5 days out of a sterile lox bath solution, which had been prepared prior to the experimental start of the present study and stored at 1° C. to 9° C. The final bath solution included Sodium Chloride 137 mM, Potassium Chloride 4 mM, Calcium Chloride 1.8 mM, Magnesium Chloride 1 mM, HEPES 10 mM, D-Glucose 10 mM, pH (NaOH) 7.4. The 1× intracellular solution was thawed every day and includes Potassium Chloride 130 mM, Magnesium Chloride 1 mM, Mg-ATP 5 mM, HEPES 10 mM, EGTA 5 Mm, pH (KOH) 7.2. Automated patch-clamping: Cells were transferred as suspension in serum-free medium to the QPatch HTX system and kept in the cell storage tank during experiments. All solutions applied to cells including the intracellular solution were maintained at room temperature (19° C. to 30° C.). After formation of a Gigaohm seal between the patch electrodes and transfected individual Ltk cells were ruptured to assure electrical access to the cell interior (whole-cell patch-configuration). Inward currents were measured upon application of 2.0 μM GABA to patch-clamped cells for 4 s. During the entire experiment the cells were voltage-clamped at a holding potential of −80 mV. For the analysis of test items, GABAA receptors were stimulated by 2.0 μM GABA and test item combinations described below. Thirty-second prewash steps with test items was performed in between two agonist applications. The dose-response curve was fit with a sigmoidal three parameter equation current=Emax/1+10^((Log EC50−X)*H) where X is the compound concentration, Emax the upper asymptote, EC50 the concentration of test item at half maximal effect, and H is the Hill coefficient. SigmaPlot 11.0 was used for construction of curve.
A general note: Patch clamp records ionic current or voltage across a cell membrane.
With `O=C(O)c1cc2n(n1)-c1ccc(Cl)cc1C(c1ccccc1F)=NC2` [Example 1, 8-chloro-6-(2-fluorophenyl)-4H-pyrazolo[1,5-a][1,4]benzodiazepine-2-carboxylic acid], the Emax is over 100%.
With `C#Cc1ccc2c(c1)C(c1ccccc1F)=NCc1cc(C(=O)O)nn1-2` [Example 2, 8-ethynyl-6-(2-fluorophenyl)-4H-pyrazolo[1,5-a][1,4]benzodiazepine-2-carboxylic acid], the Emax is over 100%.
`O=C(O)c1cc2n(n1)-c1ccc(C3CC3)cc1C(c1ccccc1F)=NC2` [Example 3, 8-cyclopropyl-6-(2-fluorophenyl)-4H-pyrazolo[1,5-a][1,4]benzodiazepine-2-carboxylic acid]: the maximum response (Emax) was over 100%.
Regarding `Cc1ccc2c(c1)C(c1ccccc1F)=NCc1cc(C(=O)O)nn1-2` [Example 4, 6-(2-fluorophenyl)-8-methyl-4H-pyrazolo[1,5-a][1,4]benzodiazepine-2-carboxylic acid], the maximum response (Emax) was over 100%.
As to `O=C(O)c1cc2n(n1)-c1ccccc1C(c1ccccc1F)=NC2` [Example 5, 6-(2-fluorophenyl)-4H-pyrazolo[1,5-a][1,4]benzodiazepine-2-carboxylic acid], the maximal response (Emax) is under 50%.
For `O=C(O)c1cc2n(n1)-c1ccc(-c3ccccc3)cc1C(c1ccccc1F)=NC2` [Example 6, 6-(2-fluorophenyl)-8-phenyl-4H-pyrazolo[1,5-a][1,4]benzodiazepine-2-carboxylic acid], the Emax was under 50%.
In the case of `O=C(O)c1cc2n(n1)-c1ccc(Br)cc1C(c1ccccc1F)=NC2` [Example 7, 8-bromo-6-(2-fluorophenyl)-4H-pyrazolo[1,5-a][1,4]benzodiazepine-2-carboxylic acid], the Emax is over 100%.
With `C[Si](C)(C)c1ccc2c(c1)C(c1ccccc1F)=NCc1cc(C(=O)O)nn1-2` [Example 8, 6-(2-fluorophenyl)-8-trimethylsilyl-4H-pyrazolo[1,5-a][1,4]benzodiazepine-2-carboxylic acid], the Emax was under 50%.
With `O=C(O)c1cc2n(n1)-c1ccc(SC(F)(F)F)cc1C(c1ccccc1F)=NC2` [Example 9, 6-(2-fluorophenyl)-8-(trifluoromethylsulfanyl)-4H-pyrazolo[1,5-a][1,4]benzodiazepine-2-carboxylic acid] the figure was over 100%.
In the case of `O=C(O)c1cc2n(n1)-c1ccc(C(F)(F)F)cc1C(c1ccccc1F)=NC2` [Example 10, 6-(2-fluorophenyl)-8-(trifluoromethyl)-4H-pyrazolo[1,5-a][1,4]benzodiazepine-2-carboxylic acid], the maximal response (Emax) was over 100%.
For the compound `O=C(O)c1cc2n(n1)-c1ccc(OC(F)(F)F)cc1C(c1ccccc1F)=NC2` [Example 11, 6-(2-fluorophenyl)-8-(trifluoromethoxy)-4H-pyrazolo[1,5-a][1,4]benzodiazepine-2-carboxylic acid], the Emax was over 100%.
`O=C(O)c1cc2n(n1)-c1cc(Cl)ccc1C(c1ccccc1F)=NC2` [Example 12]: the Emax is under 50%.
Take `O=C(O)c1cc2n(n1)-c1ccc(Cl)cc1C(c1ccccc1Br)=NC2` [Example 13, 6-(2-bromophenyl)-8-chloro-4H-pyrazolo[1,5-a][1,4]benzodiazepine-2-carboxylic acid]: the Emax was over 100%.
As for `O=C(O)c1cc2n(n1)-c1ccc(Cl)cc1C(c1c(F)cccc1F)=NC2` [Example 14, 8-chloro-6-(2,6-difluorophenyl)-4H-pyrazolo[1,5-a][1,4]benzodiazepine-2-carboxylic acid], the Emax was in the range of 51 to 100%.
For `O=C(O)c1cc2n(n1)-c1ccc(Cl)cc1C(c1ccccc1Cl)=NC2` [Example 15, 8-chloro-6-(2-chlorophenyl)-4H-pyrazolo[1,5-a][1,4]benzodiazepine-2-carboxylic acid], the Emax was over 100%.
As to `O=C(O)c1cc2n(n1)-c1ccc(Cl)cc1C(c1cccc(F)c1F)=NC2` [Example 16], the Emax was over 100%.
For the compound `O=C(O)c1cnn2c1CN=C(c1ccccc1F)c1cc(Cl)ccc1-2` [Example 17, 12-Chloro-9-(2-fluorophenyl)-2,3,8-triazatricyclo[8.4.0.0^2,6]tetradeca-1(10),3,5,8,11,13-hexaene-5-carboxylic Acid], the maximal response (Emax) is over 100%.
Turning to `Cc1ccc2c(c1)C(c1ccccc1F)=NCc1c(C(=O)O)cnn1-2` [Example 18, 6-(2-fluorophenyl)-8-methyl-4H-pyrazolo[1,5-a][1,4]benzodiazepine-3-carboxylic acid], the Emax is over 100%.
For the compound `Cc1c(C(=O)O)nn2c1CN=C(c1ccccc1F)c1cc(Cl)ccc1-2` [Example 19, 12-Chloro-9-(2-fluorophenyl)-5-methyl-2,3,8-triazatricyclo[8.4.0.0^2,6]tetradeca-1(10),3,5,8,11,13-hexaene-4-carboxylic Acid], the maximal effect (Emax) is over 100%.
For `CC1N=C(c2ccccc2F)c2cc(Cl)ccc2-n2nc(C(=O)O)cc21` (centres unmarked) [Example 20, 12-Chloro-9-(2-fluorophenyl)-7-methyl-2,3,8-triazatricyclo[8.4.0.0^2,6]tetradeca-1(10),3,5,8,11,13-hexaene-4-carboxylic acid], the Emax is over 100%.
On to `O=C(O)c1nn2c(c1Br)CN=C(c1ccccc1F)c1cc(Cl)ccc1-2` [Example 21, 3-bromo-8-chloro-6-(2-fluorophenyl)-4H-pyrazolo[1,5-a][1,4]benzodiazepine-2-carboxylic Acid], for which the Emax was over 100%.
With `O=C(O)c1nn2c(c1Cl)CN=C(c1ccccc1F)c1cc(Cl)ccc1-2` [Example 22, 3,8-dichloro-6-(2-fluorophenyl)-4H-pyrazolo[1,5-a][1,4]benzodiazepine-2-carboxylic acid] the figure was 51 to 100%.
In the case of `O=C(O)c1cc2n(n1)-c1ccc(Cl)cc1C(c1ccccc1F)=[N+]([O-])C2` [Example 23, 8-chloro-6-(2-fluorophenyl)-5-oxido-4H-pyrazolo[1,5-a][1,4]benzodiazepin-5-ium-2-carboxylic Acid], the maximal effect (Emax) was over 100%.
Take `O=C(O)c1cc2n(n1)-c1ccc(Cl)cc1C(c1ccccc1F)=NC2O` (centres unmarked) [Example 24, 8-chloro-6-(2-fluorophenyl)-4-hydroxy-4H-benzo[f]pyrazolo[1,5-a][1,4]diazepine-2-carboxylic Acid]: the Emax was under 50%.
As to `NC(=O)NCCNC(=O)c1cc2n(n1)-c1ccc(Cl)cc1C(c1ccccc1F)=NC2` [Example 25, 8-chloro-6-(2-fluorophenyl)-N-(2-ureidoethyl)-4H-benzo[f]pyrazolo[1,5-a][1,4]diazepine-2-carboxamide], the maximal effect (Emax) is 51 to 100%.
For the compound `NC(=O)NCCNC(=O)c1cnn2c1CN=C(c1ccccc1F)c1cc(Cl)ccc1-2` [Example 26, 8-chloro-6-(2-fluorophenyl)-N-(2-ureidoethyl)-4H-pyrazolo[1,5-a][1,4]benzodiazepine-3-carboxamide], the Emax was over 100%.
For the compound `NS(=O)(=O)NCCNC(=O)c1cc2n(n1)-c1ccc(Cl)cc1C(c1ccccc1F)=NC2` [Example 27, 8-chloro-6-(2-fluorophenyl)-N-[2-(sulfamoylamino)ethyl]-4H-pyrazolo[1,5-a][1,4]benzodiazepine-2-carboxamide], the maximal effect (Emax) was in the range of 51 to 100%.
Regarding `NS(=O)(=O)NCCNC(=O)c1cnn2c1CN=C(c1ccccc1F)c1cc(Cl)ccc1-2` [Example 28, 8-chloro-6-(2-fluorophenyl)-N-[2-(sulfamoylamino)ethyl]-4H-pyrazolo[1,5-a][1,4]benzodiazepine-3-carboxamide], the Emax is over 100%.
Take `O=C(O)c1cc2n(n1)-c1ccc(Cl)cc1C(c1ccccc1)=NC2` [Example 29, 8-chloro-6-phenyl-4H-benzo[f]pyrazolo[1,5-a][1,4]diazepine-2-carboxylic acid]: the maximal effect (Emax) is over 100%.

Source of the values: patent US12049467B2 (The Johns Hopkins University, priority 2021, dated 2024).
